In PMC5019375, “Characterization of Potent SMAC Mimetics that Sensitize Cancer Cells to TNF Family-Induced Apoptosis” (PLoS ONE, 2016):

Columns and labels:
[1] = tested on: PC-3 prostate cancer cells; experiment: Cytotoxicity assay, sensitization to LT-α (CellTiter-Glo); format: cell-based, human; set-up: key to LT-α EC50: IN: EC50 too weak to be determined; details: PC-3 cells, ~90 pM LT-α, 24 h, cell viability; for EC50: read-out: LT-α EC50
Experimental: (§1) Cellular cytotoxicity experiments were conducted in white 96-well flat bottom plates (Greiner Bio-One #655074). PC-3 prostate cancer cells were seeded into microtiter wells in 90 μL RPMI medium with 10% fetal calf serum and antibiotics at 5,000 cells per well, and then incubated overnight at 37°C with 5% CO2/95% air. The next day, compounds diluted into the same culture medium and added in 10 μL aliquots to achieve various final concentrations, maintaining a uniform total volume per well. Either TNF (at 10 nM final) or LT-α (at ~90 pM final) resuspended in 10 μL of RPMI with 10% fetal calf serum and antibiotics was added to wells or an equal volume of medium was applied for the control well. The plates were then further incubated for 24 h. Subsequently, cell viability was assessed by the addition of 25 μL per well of Cell-Titer-Glo reagent (Promega, Inc). Plates were read using a Luminoskan Ascent luminometer.
(§2) The cellular activity of cIAP1 and cIAP2 inhibitors was evaluated through experiments where cytotoxicity of a human prostate tumor cell line (PC-3) was assessed in the presence or absence of cytokines TNF and LT-α. The experimental approach we used was to provide TNF or LT-α at a fixed concentration, which by itself was non-cytotoxic, then titrate SMAC mimetics into the cell cultures. […] The compound series described in this work has been tested against a broad range of cell lines (data not shown and [23]) and single agent toxicity was only observed for SKOV3 ovarian tumor cells. This agrees with the findings of Varfolomeev, Vince and Lalaoui, respectively.

[2] = target: cIAP1-BIR3 (Homo sapiens, UniProt Q13490); experiment: FP competition assay, displacement of SMAC-rhodamine; details: cIAP1 BIR3 Ki, 25 mM Hepes pH 7.5, 1 mM TCEP, 0.005% Tween 20, 20 nM SMAC-rhodamine, 40 mM β-glycerol phosphate, ~50 nM protein; Ki calculated from IC50
Experimental: Solutions for assessing SMAC-rhodamine binding to various BIR domains were empirically optimized. […] For cIAP1-BIR3, the assay buffer was 25 mM Hepes [pH 7.5] containing 40 mM β-glycerol phosphate, 1 mM TCEP, and 0.005% Tween 20, typically with 20 nM SMAC-rhodamine. For cIAP1-BIR2, cIAP2-BIR2 and cIAP2-BIR3, assays were performed in 25 mM Hepes [pH 7.5] containing 1 mM TCEP and 0.005% Tween 20, typically with 20 nM SMAC-rhodamine.
For cIAP1-BIR2, assays were conducted using 25 mM Hepes [pH 7.5] containing 1 mM TCEP, 0.005% Tween 20, ~1 μM cIAP1-BIR2, and 20 nM SMAC-rhodamine. For cIAP1-BIR3, assays were performed using the same buffered solution, except 40 mM β-glycerol phosphate was added and the cIAP1-BIR3 concentration was reduced to 50 nM. For cIAP2-BIR2, assays included a buffer containing 25 mM Hepes [pH 7.5] containing 1 mM TCEP, 0.005% Tween 20, 1 μM cIAP2-BIR2, and 20 nM SMAC-rhodamine. […] IC50 values were determined with a nonlinear fit using Prism software. Ki values were determined from the IC50 values using an online program developed by Nikolovska-Coleska et al. [26].

[3] = tested on: PC-3 prostate cancer cells; experiment: Cytotoxicity assay, sensitization to TNF (CellTiter-Glo); format: cell-based, human; set-up: key to TNF EC50: IN: EC50 too weak to be determined; details: PC-3 cells, 10 nM TNF, 24 h, cell viability; for EC50: read-out: TNF EC50
Experimental: as §1, §2

[4] = target: T1, myc-RIP1 binding to GST-cIAP1-BIR3 (Homo sapiens, UniProt Q13490); experiment: RIP1 binding, GST pull-down from HEK293T lysates; details: various concentrations, overnight, 4°C
T1 construct: purified GST-fusion proteins (GST-cIAP1-BIR3 or GST-cIAP2-BIR3) were added; made in house; host or cells: GST fusion: bacteria (as for the other recombinant proteins); myc-RIP1: transfected HEK293T cell lysate
Experimental: (§3) To assess the impact of compounds on cIAP1 and cIAP2 binding to RIP1, 700,000 HEK293T cells were seeded into 100 mm cell-culture plates and transfected the next day with 6 μg of plasmid DNA, myc-RIP1 in pRK5 vector. […] Lysates from 6 plates were pooled and divided into equal 300 μL aliquots, into which 7 μg of purified GST-fusion proteins (GST-cIAP1-BIR3 or GST-cIAP2-BIR3) were added in the presence of various concentrations of SMAC mimetic compounds. The tubes were rocked overnight at 4°C, and the next day 20 μL of glutathione-Sepharose beads (GE Healthcare) was added to each tube and the tubes were rocked for an additional 2 h at 4°C. The GST-fusion proteins were recovered by centrifugation at 2,300 g for 30 sec, then washed 3-times in NP-40 lysis buffer. Finally, 20 μL of 2X Laemmli buffer was added and the samples were boiled, then fractionated by SDS-PAGE, followed by immunoblotting using anti-myc antibody (Roche) for detection of myc-RIP1 and anti-GST antibody (BD Biosciences, La Jolla, CA) for detection of GST-fusion proteins.

[5] = target: T2, myc-RIP1 binding to GST-cIAP2-BIR3 (Homo sapiens, UniProt Q13489); experiment: RIP1 binding, GST pull-down from HEK293T lysates; details: various concentrations, overnight, 4°C
T2 construct: purified GST-fusion proteins (GST-cIAP1-BIR3 or GST-cIAP2-BIR3) were added; made in house; host or cells: GST fusion: bacteria (as for the other recombinant proteins); myc-RIP1: transfected HEK293T cell lysate
Experimental: as §3

[6] = target: T3, cIAP1 protein in MDA-MB-231 cells (Homo sapiens, UniProt Q13490); experiment: Immunoblotting of cIAP1 protein levels in cells; format: cell-based; details: 5 μM, 6 h, immunoblot
T3 construct: MDA-MB-231 cells contain abundant levels of cIAP1 protein but little cIAP2 protein; endogenous in cells; host or cells: MDA-MB-231
Experimental: To assess the impact of compounds on cIAP1 protein levels in cells, 40,000 MDA-MB-231 cells were cultured in complete medium (RPMI with 10% fetal calf serum and antibiotics) overnight at 37°C in 5% CO2/95% air. The following day compounds at 5 μM (or an equivalent volume of diluent control) were added. After 6 h, cells were recovered by centrifugation, lysed in SDS-sample buffer, and equivolume aliquots of lysates were analyzed by SDS-PAGE/Immunoblotting using antibodies specific for human/mouse cIAP (pan) Mab (clone 315301; R&D Systems #MAB3400) and β-actin (Sigma-Aldrich #A5441) by an enhanced chemiluminescence (ECL) method, essentially as described.

T1 sequence (Q13490 257-356 limits assumed): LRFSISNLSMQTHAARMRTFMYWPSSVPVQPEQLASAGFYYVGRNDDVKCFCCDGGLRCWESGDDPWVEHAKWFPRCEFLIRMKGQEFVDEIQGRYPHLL
cIAP1-BIR3, sequence (Q13490 257-356): as the sequence (Q13490 257-356 limits assumed) above
T2 sequence (Q13489 243-333 limits assumed): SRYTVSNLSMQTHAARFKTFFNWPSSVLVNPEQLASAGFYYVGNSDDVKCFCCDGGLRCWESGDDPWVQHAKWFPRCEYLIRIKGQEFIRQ
T3 sequence (Q13490 whole entry): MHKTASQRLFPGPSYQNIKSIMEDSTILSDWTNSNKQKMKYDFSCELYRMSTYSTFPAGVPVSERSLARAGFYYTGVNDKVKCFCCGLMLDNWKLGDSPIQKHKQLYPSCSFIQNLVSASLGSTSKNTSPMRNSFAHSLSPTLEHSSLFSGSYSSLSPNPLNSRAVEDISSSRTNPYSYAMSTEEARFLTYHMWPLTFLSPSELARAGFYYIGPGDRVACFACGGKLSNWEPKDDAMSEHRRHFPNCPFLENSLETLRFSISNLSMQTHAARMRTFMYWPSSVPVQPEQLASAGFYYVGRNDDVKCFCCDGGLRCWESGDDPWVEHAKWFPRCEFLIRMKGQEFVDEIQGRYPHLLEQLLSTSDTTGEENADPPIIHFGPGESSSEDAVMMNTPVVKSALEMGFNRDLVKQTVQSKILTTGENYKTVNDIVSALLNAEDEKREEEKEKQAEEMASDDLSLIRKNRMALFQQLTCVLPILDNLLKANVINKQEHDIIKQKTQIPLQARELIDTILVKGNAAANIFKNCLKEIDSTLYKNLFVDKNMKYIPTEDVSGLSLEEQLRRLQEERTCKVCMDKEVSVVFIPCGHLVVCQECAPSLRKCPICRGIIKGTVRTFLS

| Ki [2] | inhibition of myc-RIP1 binding to GST-cIAP1-BIR3 [4] | inhibition of myc-RIP1 binding to GST-cIAP2-BIR3 [5] | Structure (SMILES) | EC50 [1] | EC50 [3] | effect on cIAP1 protein levels in cells [6] | LT-α EC50 [1] | TNF EC50 [3] |
| --- | --- | --- | --- | --- | --- | --- | --- | --- |
| 20 nM | inhibited binding | inhibited binding | CN[C@@H](C)C(=O)N[C@H](C(=O)N1CCC[C@@H]1C(=O)N[C@H]1CCOc2ccccc21)C(C)C [compound 37, reference compound] | 10 nM | 30 nM |  |  |  |
| 30 nM | inhibited binding | inhibited binding | CN[C@@H](C)C(=O)N[C@H](C(=O)N1CSC[C@@H]1C(=O)NC1CCCc2ccccc21)C(C)C (some centres unmarked) [compound 38, reference compound] | 20 nM | 60 nM | caused reductions of cIAP1 protein levels in cells |  |  |
| > 92400 nM | did not | did not | CN[C@@H](C)C(=O)N[C@@H](C(=O)N1CCC[C@@H]1C(=O)NNc1cccc(F)c1)C1CCCCC1 [compound 40, reference compound] |  |  | did not | IN^b | IN^b |
